Test [1] deals with T1, Dihydrofolate reductase (Rattus norvegicus) (UniProt Q920D2).
T1 sequence (whole entry): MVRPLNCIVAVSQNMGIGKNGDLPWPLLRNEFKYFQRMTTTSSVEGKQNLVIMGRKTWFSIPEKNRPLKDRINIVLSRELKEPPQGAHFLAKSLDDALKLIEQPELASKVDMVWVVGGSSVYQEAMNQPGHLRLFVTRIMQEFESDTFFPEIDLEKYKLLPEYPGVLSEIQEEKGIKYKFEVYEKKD
The test is described as follows: Inhibitory activity against dihydrofolate reductase DHFR from rat liver at 32 uM concentration.

Test [2] deals with T2, Dihydrofolate reductase (Pneumocystis carinii) (UniProt P16184).
T2 sequence (whole entry): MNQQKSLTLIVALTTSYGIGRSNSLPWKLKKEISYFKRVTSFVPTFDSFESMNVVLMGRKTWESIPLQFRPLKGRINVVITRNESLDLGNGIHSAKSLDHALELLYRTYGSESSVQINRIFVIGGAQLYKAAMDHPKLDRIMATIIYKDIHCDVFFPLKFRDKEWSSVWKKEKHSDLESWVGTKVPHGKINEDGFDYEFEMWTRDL
The test is described as follows: Inhibitory activity against dihydrofolate reductase dihydrofolate reductase from Pneumocystis carinii. at 32 uM concentration.

In test [3] the target is T3, Bifunctional dihydrofolate reductase-thymidylate synthase (Toxoplasma gondii) (UniProt Q07422).
T3 sequence (whole entry): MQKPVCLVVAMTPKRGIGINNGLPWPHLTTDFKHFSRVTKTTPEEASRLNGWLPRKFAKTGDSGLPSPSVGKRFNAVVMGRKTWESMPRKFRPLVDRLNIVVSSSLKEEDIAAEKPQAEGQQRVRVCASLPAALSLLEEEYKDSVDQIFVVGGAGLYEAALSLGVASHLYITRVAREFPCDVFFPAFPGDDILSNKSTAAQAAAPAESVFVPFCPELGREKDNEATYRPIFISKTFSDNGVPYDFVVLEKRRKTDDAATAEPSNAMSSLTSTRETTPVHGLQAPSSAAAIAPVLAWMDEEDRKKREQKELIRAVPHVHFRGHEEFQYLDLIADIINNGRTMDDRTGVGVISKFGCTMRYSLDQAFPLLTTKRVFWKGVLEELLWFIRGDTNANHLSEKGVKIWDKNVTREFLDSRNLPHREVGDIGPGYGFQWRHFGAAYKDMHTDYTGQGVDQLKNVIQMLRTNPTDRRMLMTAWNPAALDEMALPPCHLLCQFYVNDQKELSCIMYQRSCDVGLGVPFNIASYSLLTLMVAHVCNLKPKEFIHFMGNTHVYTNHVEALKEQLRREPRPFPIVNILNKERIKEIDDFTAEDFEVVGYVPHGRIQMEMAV
The test is described as follows: Inhibitory activity against dihydrofolate reductase DHFR from Toxoplasma gondii at 32 uM concentration.

Test [4] deals with T1, Dihydrofolate reductase (Rattus norvegicus). The test is described as follows: Inhibitory activity against dihydrofolate reductase DHFR from rat liver at 51 uM concentration.
In test [5] the target is T2, Dihydrofolate reductase (Pneumocystis carinii). The test is described as follows: Inhibitory activity against dihydrofolate reductase dihydrofolate reductase from Pneumocystis carinii. at 51 uM concentration.
The target of test [6] is T3, Bifunctional dihydrofolate reductase-thymidylate synthase (Toxoplasma gondii). As to the kind of experiment: Inhibitory activity against dihydrofolate reductase DHFR from Toxoplasma gondii at 51 uM concentration.
The target of test [7] is T4, Dihydrofolate reductase (Pneumocystis carinii, UniProt P16184).
T4 sequence (P16184 whole entry): T2 sequence (whole entry)
Description: Inhibitory concentration against dihydrofolate reductase dihydrofolate reductase from Pneumocystis carinii.

The target of test [8] is T5, Dihydrofolate reductase (Rattus norvegicus, UniProt Q920D2).
T5 sequence (Q920D2 whole entry): T1 sequence (whole entry)
Description: Inhibitory concentration against dihydrofolate reductase DHFR from rat liver.

Test [9] addresses T6, Bifunctional dihydrofolate reductase-thymidylate synthase (Toxoplasma gondii, UniProt Q07422).
T6 sequence (Q07422 whole entry): T3 sequence (whole entry)
Description: Inhibitory concentration against dihydrofolate reductase DHFR from Toxoplasma gondii

Test [10] concerns the target T3, Bifunctional dihydrofolate reductase-thymidylate synthase (Toxoplasma gondii). The test is described as follows: Relative activity against dihydrofolate reductase DHFR from Toxoplasma gondii.
A short description of test [11]: Ratio of the IC50 values for rlDHFR of the metabolite and pcDHFR of the soft drug.
The target in test [12] is T1, Dihydrofolate reductase (Rattus norvegicus). The test is described as follows: Inhibitory activity against dihydrofolate reductase DHFR from rat liver at 104 uM concentration.
Test [13] has as its target T2, Dihydrofolate reductase (Pneumocystis carinii). The test is described as follows: Inhibitory activity against dihydrofolate reductase dihydrofolate reductase from Pneumocystis carinii. at 104 uM concentration.
Test [14] concerns the target T3, Bifunctional dihydrofolate reductase-thymidylate synthase (Toxoplasma gondii). The test is described as follows: Inhibitory activity against dihydrofolate reductase DHFR from Toxoplasma gondii at 104 uM concentration.

A word on the inhibition: it is the share of the control response that was lost under treatment. A lower inhibition goes with little suppression. Take `Nc1nc(N)c2cc(C(=O)O)ccc2n1`: the inhibition in test [1] was determined as 3%; in test [2] it was 11%; in test [3], 16%.

In the case of `Nc1nc(N)c2nc(CO)cnc2n1`, the inhibition was found to be 2% in [4], 10% in test [5] and 12% in test [6].

As a reminder, the IC50 is the concentration that gives 50% inhibition. Low readings indicate inhibition by little substance, high ones a need for much substance. As to `CN(Cc1ccc2nc(N)nc(N)c2c1)c1ccccc1`, the results for the IC50 (against Dihydrofolate reductase [7]; against Dihydrofolate reductase [8]; in test [9]) were 96 nM, 69 nM and 11 nM, respectively.

As to `Cc1c(CO)cnc2nc(N)nc(N)c12`, the IC50 against Dihydrofolate reductase [8] is 8500 nM; in test [9] it was 3200 nM.

As for `COc1ccc(C(=O)OCc2ccc3nc(N)nc(N)c3c2)c(OC)c1OC`, the IC50 at Dihydrofolate reductase [7] turned out to be 1400 nM; against Dihydrofolate reductase [8], 500 nM; in test [9] it was 140 nM.

For the compound `Nc1nc(N)c2nc(COC(=O)c3ccccc3)cnc2n1`, the IC50 against Dihydrofolate reductase [7] amounted to 9800 nM; against Dihydrofolate reductase [8], 7000 nM; in [9] it was 5800 nM.

On to `COc1ccc(OC)c(Cc2cnc3nc(N)nc(N)c3c2C)c1` [PIRITREXIM], for which the IC50 against Dihydrofolate reductase [8] came to 4.4 nM.

`Nc1nc(N)c2cc(COC(=O)c3ccccc3)ccc2n1`: in test [10], the Relative IC50 stood at 3.9. Also, in test [11], the Ratio turned out to be 67. The IC50 was 600 nM against Dihydrofolate reductase [7], 390 nM at Dihydrofolate reductase [8] and 99 nM in [9].

`Nc1nc(N)c2cc(CO)cnc2n1`: the inhibition came to 19% in [12], 17% in [13] and 9% in test [14].

On to `COc1ccc(C(=O)OCc2ccc3nc(N)nc(N)c3c2)cc1OC`, for which the results for the IC50 (against Dihydrofolate reductase [7]; at Dihydrofolate reductase [8]; in test [9]) were 510 nM, 110 nM and 66 nM, respectively.

Regarding `Nc1nc(N)c2cc(COC(=O)c3ccc(C(=O)O)cc3)ccc2n1`, the IC50 (on Dihydrofolate reductase [7]; in test [9]) was 1000 nM each time.

With `COc1cc(OC)cc(C(=O)OCc2ccc3nc(N)nc(N)c3c2)c1`, the IC50 stood at 460 nM on Dihydrofolate reductase [7], 350 nM at Dihydrofolate reductase [8] and 150 nM in test [9].

Consider `COc1cc(C(=O)OCc2ccc3nc(N)nc(N)c3c2)cc(OC)c1OC`, for which the Relative IC50 in test [10] is 0.51. The IC50 was determined as 560 nM against Dihydrofolate reductase [7], 26 nM at Dihydrofolate reductase [8] and 50 nM in test [9].

As to `Nc1nc(N)c2cc(CO)ccc2n1`, the results for the IC50 (on Dihydrofolate reductase [8]; in test [9]) were 40300 nM and 44900 nM, respectively.

Consider `Nc1nc(N)c2cc(COC(=O)c3ccccc3)cnc2n1`, for which the IC50 against Dihydrofolate reductase [7] stood at 5450 nM; against Dihydrofolate reductase [8], 3900 nM; in [9], 1900 nM.

The compound `Nc1nc(N)c2cc(C(=O)OCc3ccccc3)ccc2n1` registered a Relative IC50 in test [10] of 1.2. Also, the results for the IC50 (against Dihydrofolate reductase [7]; on Dihydrofolate reductase [8]; in test [9]) were 2500 nM, 420 nM and 360 nM, respectively.

With `COc1ccc(OC)c(C(=O)OCc2ccc3nc(N)nc(N)c3c2)c1`, the results for the IC50 (on Dihydrofolate reductase [7]; against Dihydrofolate reductase [8]; in test [9]) were 2400 nM, 420 nM and 220 nM, respectively.

`Cc1c(COC(=O)c2ccccc2)cnc2nc(N)nc(N)c12`: in [11], the Ratio is 33. Also, the IC50 turned out to be 250 nM against Dihydrofolate reductase [7], 230 nM at Dihydrofolate reductase [8] and 56 nM in test [9].

On Dihydrofolate reductase [8], `COc1cc(NCc2ccc3nc(N)nc(N)c3c2C)cc(OC)c1OC` [TRIMETREXATE] returned an IC50 of 8 nM.

On to `Nc1nc(N)c2cc(COC(=O)Cc3ccccc3)ccc2n1`, for which the figures for the IC50 (against Dihydrofolate reductase [8]; in test [9]) were 2300 nM and 1900 nM, respectively.

With `Nc1nc(N)c2cc(CNc3ccccc3)ccc2n1`, the results for the IC50 (against Dihydrofolate reductase [7]; against Dihydrofolate reductase [8]; in test [9]) were 980 nM, 440 nM and 100 nM, respectively.

In the case of `Nc1nc(N)c2cc(/C=C/C(=O)Oc3ccccc3)ccc2n1`, the IC50 stood at 1290 nM against Dihydrofolate reductase [8] and 189 nM in [9].
